{
  "source": "paper PMC10967909",
  "about": "“Targeted Delivery of Abaloparatide to Spinal Fusion Site Accelerates Fusion Process in Rats” (Biomedicines, 2024)",
  "origin": "cited, not measured here",
  "key": {"[1]": {"target": "T1, PTH1R (UMR-106 cells) (Rattus norvegicus, UniProt P25961)", "T1 construct": "evaluated in UMR-106 cells (ATCC, Manassas, VA, USA) which express PTH1R; host or cells: UMR-106 cells", "T1 sequence (P25961 27-591)": "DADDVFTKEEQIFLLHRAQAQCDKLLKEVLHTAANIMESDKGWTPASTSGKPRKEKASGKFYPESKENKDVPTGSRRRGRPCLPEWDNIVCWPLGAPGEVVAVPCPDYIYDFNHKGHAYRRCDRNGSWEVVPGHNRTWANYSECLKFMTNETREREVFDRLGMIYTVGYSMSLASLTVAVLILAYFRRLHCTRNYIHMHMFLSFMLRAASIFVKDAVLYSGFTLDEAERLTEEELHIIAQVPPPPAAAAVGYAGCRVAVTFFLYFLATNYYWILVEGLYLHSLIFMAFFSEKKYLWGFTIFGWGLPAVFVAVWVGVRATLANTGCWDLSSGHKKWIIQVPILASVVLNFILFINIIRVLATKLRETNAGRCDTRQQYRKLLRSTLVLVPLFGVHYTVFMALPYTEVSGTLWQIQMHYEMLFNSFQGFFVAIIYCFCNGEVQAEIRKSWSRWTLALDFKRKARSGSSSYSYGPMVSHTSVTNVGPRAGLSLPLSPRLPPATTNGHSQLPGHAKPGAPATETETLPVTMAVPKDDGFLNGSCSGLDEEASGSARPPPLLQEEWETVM", "details": "UMR 106 cells treated with drug for 1 h; Figure 2A legend, adapted; ref Low et al., 2022 [20]; read-out: EC50 (cAMP Glo assay)"}, "[2]": {"description": "A second question that logically arose is whether abaloparatide constituted the ideal payload for accelerating the fusion process. Although the PTH1R agonist, abaloparatide, has been well established as a bone anabolic agent, it is only clinically approved for treating osteoporosis. Most of abaloparatide’s applications have been limited to promoting systemic changes throughout the skeleton to reduce fracture risk."}},
  "data": [
    {"molecule": "abaloparatide", "values": [
      {"measurement": "EC50", "setting": "[1]", "value": 0.66, "unit": "nM"},
      {"measurement": "trabecular bone growth, clinical", "setting": "[2]; clinically", "value": "promote trabecular bone growth"},
      {"measurement": "fracture repair efficacy of nontargeted abaloparatide", "setting": "[2]; past efforts, ref not given", "value": "unsuccessful due to the lack of efficacy at systemically tolerable doses"},
      {"measurement": "trabecular bone growth, preclinical", "setting": "[2]; preclinically", "value": "promote trabecular bone growth"}
    ]},
    {"molecule": "Ab46-D-Glu20: variant of abaloparatide linked to a linear 20 mer of D-glutamic acid that naturally accumulates on exposed hydroxyapatite (protein, The C-terminal 20 Glu are all D-residues (linear D-Glu20, described in the text as a 20 mer of D-glutamic acid); Ab46 is tak) AVSEHQLLHDKGKSIQDLRRRELLEKLLAKLHTAEIRATSEVSPNSEEEEEEEEEEEEEEEEEEEE", "values": [
      {"measurement": "EC50", "setting": "[1]", "value": 0.48, "unit": "nM"}
    ]}
  ]
}
